Data taken from US5043326A, “Inclusion complex of 7-isopropoxy-isoflavon formed with cyclodextrin, the preparation thereof and pharmaceutical compositions containing these compounds as active ingredients” (priority 1985, dated 1991).
Converted amounts (≈) assume the structure as drawn. Blank lines part the entries; values can stand above or below the compound they belong to.

Legend:
[1] = Urinary excretion in rats, 24 h (HPLC); format: in vivo, CFY male rats; details: rat urine
Experimental: (§1) To the resorption tests CFY male rats weighing 170-200 g were used. After a 16-hour fasting period, Ipriflavon in a dose of 25 mg/kg (group A), Ipriflavon-β-cyclodextrin inclusion complex prepared according to Example 1 (group B) and Ipriflavon-β-cyclodextrin mixture (group C)--both containing the β-cyclodextrin in equimolar ratio to the active ingredient--were administered, thereafter rat-food and water were given "ad libitum" to the animals.
(§2) The materials to be tested were mixed for 5 minutes in 2 ml of 1% methylcellulose solution and administered by the aid of a stomach tube. The plasma samples were collected 10, 30 minutes and 1, 2 and 4 hours after the treatment using mortal haemorrhage after transecting the Vena femoralis of the animals anasthesied with ether. The blood samples were charged into heparinized tubes, centrifuged, nutsch-filtered and stored deep-freezed, in vial until further use.
In order to collect urinary samples, after treatment the animals were placed into individual metabolism vessel and urine and faeces were separately collected for 24 hours. The urinary samples were stored deep-freezed until further use. The concentration of the unchanged Ipriflavon and its main metabolite (7-hydroxy-isoflavon) in the urinary and the plasma samples was followed by HPLC. […]

[2] = cited from earlier work
[3] = cited from earlier work; remark: listed apart in the source
[4] = set-up: species or system CFY male rats; details: rat, in vivo, po, 25 mg/kg, 1440 min
[5] = Resorption test in rats: plasma level of unchanged Ipriflavon (HPLC); format: in vivo, CFY male rats; details: rat
Experimental: as §1, §2
In order to collect urinary samples, after treatment the animals were placed into individual metabolism vessel and urine and faeces were separately collected for 24 hours. The urinary samples were stored deep-freezed until further use. The concentration of the unchanged Ipriflavon and its main metabolite (7-hydroxy-isoflavon) in the urinary and the plasma samples was followed by HPLC.
To carry out the HPLC, liquid chromatography of typ RP-18 and LiChrosorb reverse phase column (grain size in case of plasma sample: 10 μm and in case of urinary samples: 5 μm) were used. Flow velocity of eluent: 1.5 ml/min, wave length of UV detector: 254 nm, paper-velocity: 0.2 cm/min.
In case of plasma samples a mixture of 0.05M acetate buffer (pH=3):acetonitrile=60:40 and in case of urinary samples a mixture of acetate buffer:acetonitril=55:45 were used as eluent. The internal standard was ethanolic solution of 2-methyl-7-methoxy-4'-nitro-isoflavon (100 μg/ml) and to the calibration, solutions comprising 100 μg/ml and 10 μg/ml of 7-hydroxy-isoflavon in methanol were used.
To analyse the plasma samples, to 1 ml of plasma 1 ml acetate-buffer (pH=5) and β-glucuronidase (arylsulfonase) enzyme (100 FU) diluted to 10-fold with 10 μl of distilled water were added and incubated at 37° C. for 24 hours. After incubation, 50 μl of 2N NaOH were added and the mixture was extracted with benzene and centrifuged. The organic phase was separated, the aqueous phase was made acidic with […] of 1N HCl, and after adding 50 μl of internal standard solution it was repeatedly extracted with 8 ml benzene. The organic phase was centrifuged,evaporated, the residue was dissolved in 100 μl of eluent and 50 μl of this solution were injected and measured.
Equation of the calibration curve: y=8.2x-0.08; correlation coefficient: 0.9999.
In Table IV the concentration values of unchanged Ipriflavon and in Table V the concentration values of the main metabolite determined in the blood of animals are shown. To group A Ipriflavon per se, to group B the inclusion complex according to the invention and to group C the mixture of Ipriflavon and β-cyclodextrin were administered.

[6] = Solubility of Ipriflavon in aqueous cyclodextrin solutions (4 days agitation, 25° C., photometric); format: physicochemical
Experimental: One of the evidence of the formation of inclusion complex between Ipriflavon and cyclodextrin is that the cyclodextrin increases the solubility of Ipriflavon in aqueous solutions. In order to determine this property, 10 mg of Ipriflavon, cyclodextrin in different amounts and 5 ml of distilled water were charged into 10 ml test tubes. After closing, the tubes were agitated for 4 days at 25° C. at 325 rpm, thereafter the samples were filtered on a G4 glass-filter and the filtrates were photometrically analysed in 50% aqueous ethanol solution.

[7] = physchem; format: physicochemical; details: for Concentration of dissolved Ipriflavon: 37° C.
Experimental: To carry out the dissolution tests 250 ml of distilled water were charged into a 500 ml flask and heated to 37° C. Thereafter the product in an amount corresponding to 50 mg of active ingredient was added then the suspension thus obtained was stirred at 1000 rpm using a magnetic stirrer. At fixed intervals 2-6 ml of samples were taken and filtered on glass-filter and after diluting, the filtrates were measured photometrically in an 1:1 mixture of water:ethanol.

[8] = set-up: species or system CFY male rats; details: rat, in vivo, po
Experimental: as §1
as §2, with “The blood samples were charged into heparinized tubes, centrifuged, nutsch-filtered and stored deep-freezed, in vial until further use.” left out
To analyse the plasma samples, to 1 ml of plasma 1 ml acetate-buffer (pH=5) and β-glucuronidase (arylsulfonase) enzyme (100 FU) diluted to 10-fold with 10 μl of distilled water were added and incubated at 37° C. for 24 hours. […] The organic phase was centrifuged,evaporated, the residue was dissolved in 100 μl of eluent and 50 μl of this solution were injected and measured. […]
In Table IV the concentration values of unchanged Ipriflavon and in Table V the concentration values of the main metabolite determined in the blood of animals are shown. […]

[9] = Resorption test in rats: plasma level of unchanged Ipriflavon (HPLC); set-up: species or system CFY male rats; details: rat, in vivo, po, 25 mg/kg, 1440 min
[10] = cited from earlier work; remark: listed apart in the source
[11] = in vivo, po, 25 mg/kg, Plasma-level of unchanged Ipriflavon

quantity of main metabolite of the total quantity of the metabolite [1]: 50-55%
Structure (SMILES): O=c1c(-c2ccccc2)coc2cc(O)ccc12 [7-hydroxy-isoflavon]

Plasma-level of main metabolite (7-hydoxy-isoflavon) [4]: 0 µg/mL
Plasma-level of unchanged Ipriflavon ([5]; in vivo, po, 25 mg/kg, 10.2 min): 0 µg/mL
Plasma-level of unchanged Ipriflavon ([5]; in vivo, po, 25 mg/kg, 30 min): 0 µg/mL
Plasma-level of unchanged Ipriflavon ([5]; in vivo, po, 25 mg/kg, 60 min): 0 µg/mL
Plasma-level of unchanged Ipriflavon ([5]; in vivo, po, 25 mg/kg, 120 min): 0 µg/mL
Plasma-level of unchanged Ipriflavon ([5]; in vivo, po, 25 mg/kg, 2 h): 0.095 µg/mL
Plasma-level of unchanged Ipriflavon ([5]; in vivo, po, 25 mg/kg, 240 min): 0 µg/mL
concentration at 2 h [5, 11]: 0.078 µg/mL
concentration at 4 h [5, 11]: 0.041 µg/mL
solubility at 96 h ([6]; 12% aqueous alpha-cyclodextrin, solubility of Ipriflavon in α-cyclodextrin solution): 20 to 22 µg/mL (≈ 71.3 to 78.5 µM)
increase of solubility in DIMEB ([6]; 15% DIMEB): 1770 -fold
increase of solubility in TRIMEB ([6]; 15% TRIMEB): 300 -fold
solubility at 96 h ([6]; 15% aqueous dimeb, solubility in DIMEB solution): 1700 to 2000 µg/mL (≈ 6060 to 7130 µM)
solubility at 96 h ([6]; 15% aqueous trimeb, solubility in TRIMEB solution): 440 µg/mL (≈ 1570 µM)
solubility at 96 h ([6]; aqueous α-cd 11 mg/ml, Solubility of Ipriflavon): 4.12 µg/mL (≈ 14.7 µM)
solubility at 96 h ([6]; aqueous α-cd 13 mg/ml, Solubility of Ipriflavon): 4.68 µg/mL (≈ 16.7 µM)
solubility at 96 h ([6]; aqueous α-cd 15 mg/ml, Solubility of Ipriflavon): 5.08 µg/mL (≈ 18.1 µM)
solubility at 96 h ([6]; aqueous α-cd 20 mg/ml, Solubility of Ipriflavon): 6.1 µg/mL (≈ 21.8 µM)
solubility at 96 h ([6]; aqueous α-cd 30 mg/ml, Solubility of Ipriflavon): 8.19 µg/mL (≈ 29.2 µM)
solubility at 96 h ([6]; aqueous α-cd 40 mg/ml, Solubility of Ipriflavon): 9.63 µg/mL (≈ 34.4 µM)
solubility at 96 h ([6]; aqueous α-cd 70 mg/ml, Solubility of Ipriflavon): 14.8 µg/mL (≈ 52.7 µM)
solubility at 96 h ([6]; aqueous α-cd 90 mg/ml, Solubility of Ipriflavon): 18.2 µg/mL (≈ 65.1 µM)
solubility at 96 h ([6]; aqueous α-cd 100 mg/ml, Solubility of Ipriflavon): 21.6 µg/mL (≈ 77.2 µM)
solubility at 96 h ([6]; aqueous α-cd 110 mg/ml, Solubility of Ipriflavon): 19 µg/mL (≈ 67.9 µM)
solubility at 96 h ([6]; aqueous α-cd 120 mg/ml, Solubility of Ipriflavon): 23.6 µg/mL (≈ 84.4 µM)
solubility at 96 h ([6]; aqueous β-cd 1 mg/ml, Solubility of Ipriflavon): 2.52 µg/mL (≈ 8.99 µM)
solubility at 96 h ([6]; aqueous β-cd 3 mg/ml, Solubility of Ipriflavon): 7.03 µg/mL (≈ 25.1 µM)
solubility at 96 h ([6]; aqueous β-cd 5 mg/ml, Solubility of Ipriflavon): 11.4 µg/mL (≈ 40.8 µM)
solubility at 96 h ([6]; aqueous β-cd 7 mg/ml, Solubility of Ipriflavon): 15.9 µg/mL (≈ 56.8 µM)
solubility at 96 h ([6]; aqueous β-cd 9 mg/ml, Solubility of Ipriflavon): 19.5 µg/mL (≈ 69.6 µM)
solubility at 96 h ([6]; aqueous β-cd 11 mg/ml, Solubility of Ipriflavon): 15.2 µg/mL (≈ 54.3 µM)
solubility at 96 h ([6]; aqueous β-cd 13 mg/ml, Solubility of Ipriflavon): 15.5 µg/mL (≈ 55.2 µM)
solubility at 96 h ([6]; aqueous β-cd 15 mg/ml, Solubility of Ipriflavon): 15.8 µg/mL (≈ 56.2 µM)
solubility at 96 h ([6]; aqueous β-cd 20 mg/ml, Solubility of Ipriflavon): 13.5 µg/mL (≈ 48 µM)
solubility at 96 h ([6]; aqueous β-cd 30 mg/ml, Solubility of Ipriflavon): 7.59 µg/mL (≈ 27.1 µM)
solubility at 96 h ([6]; aqueous β-cd 40 mg/ml, Solubility of Ipriflavon): 6.2 µg/mL (≈ 22.1 µM)
solubility at 96 h ([6]; aqueous β-cd 70 mg/ml, Solubility of Ipriflavon): 6.08 µg/mL (≈ 21.7 µM)
solubility at 96 h ([6]; aqueous β-cd 90 mg/ml, Solubility of Ipriflavon): 6.93 µg/mL (≈ 24.7 µM)
solubility at 96 h ([6]; aqueous β-cd 100 mg/ml, Solubility of Ipriflavon): 6.64 µg/mL (≈ 23.7 µM)
solubility at 96 h ([6]; aqueous β-cd 110 mg/ml, Solubility of Ipriflavon): 5.98 µg/mL (≈ 21.3 µM)
solubility at 96 h ([6]; aqueous β-cd 120 mg/ml, Solubility of Ipriflavon): 5.66 µg/mL (≈ 20.2 µM)
solubility at 96 h ([6]; aqueous γ-cd 11 mg/ml, Solubility of Ipriflavon): 2.02 µg/mL (≈ 7.21 µM)
solubility at 96 h ([6]; aqueous γ-cd 13 mg/ml, Solubility of Ipriflavon): 2.05 µg/mL (≈ 7.31 µM)
solubility at 96 h ([6]; aqueous γ-cd 15 mg/ml, Solubility of Ipriflavon): 2.16 µg/mL (≈ 7.71 µM)
solubility at 96 h ([6]; aqueous γ-cd 20 mg/ml, Solubility of Ipriflavon): 2.38 µg/mL (≈ 8.49 µM)
solubility at 96 h ([6]; aqueous γ-cd 30 mg/ml, Solubility of Ipriflavon): 2.74 µg/mL (≈ 9.77 µM)
solubility at 96 h ([6]; aqueous γ-cd solution, Solubility of Ipriflavon): 3.26 µg/mL (≈ 11.6 µM)
solubility at 96 h ([6]; beta-cyclodextrin solution, constant solubility value (solubility limit of the solid inclusion complex in excess Ipriflavon)): 6 µg/mL (≈ 21.4 µM)
solubility at 96 h ([6]; beta-cyclodextrin solution, solubility of Ipriflavon in β-cyclodextrin solution): 16 to 20 µg/mL (≈ 57.1 to 71.3 µM)
solubility at 96 h ([6]; distilled water, water, solubility of Ipriflavon in distilled water): 1 to 2 µg/mL (≈ 3.57 to 7.13 µM)
increase of solubility in β-cyclodextrin solution vs distilled water ([6]; β-cyclodextrin, depending on concentration): ≤ 15 -fold
increase of solubility in γ-cyclodextrin solution ([6]; γ-cyclodextrin): 3 -fold
Concentration of dissolved Ipriflavon ([7]; 1 min, distilled water): 0.435 µg/mL
Concentration of dissolved Ipriflavon ([7]; 2 min, distilled water): 0.327 µg/mL
Concentration of dissolved Ipriflavon ([7]; 3 min, distilled water): 0.401 µg/mL
Concentration of dissolved Ipriflavon ([7]; 5 min, distilled water): 0.507 µg/mL
Concentration of dissolved Ipriflavon ([7]; 10 min, distilled water): 0.882 µg/mL
Concentration of dissolved Ipriflavon ([7]; 15 min, distilled water): 1.123 µg/mL
Concentration of dissolved Ipriflavon ([7]; 20 min, distilled water): 1.197 µg/mL
Concentration of dissolved Ipriflavon ([7]; 30 min, distilled water): 1.423 µg/mL
Concentration of dissolved Ipriflavon ([7]; 40 min, distilled water): 1.508 µg/mL
Concentration of dissolved Ipriflavon ([7]; 60 min, distilled water): 1.621 µg/mL
Concentration of dissolved Ipriflavon ([7]; 90 min, distilled water): 1.525 µg/mL
Concentration of dissolved Ipriflavon ([7]; 120 min, distilled water): 1.482 µg/mL
solubility ([7]; distilled water, water): ~1.5 µg/mL (≈ 5.35 µM)
time to reach the saturation value ([7]; free active ingredient): 40 to 50 min
plasma level of main metabolite [8]: 0.2 to 1.0 µg/mL
Plasma-level of unchanged Ipriflavon [9]: 0 µg/mL
Structure (SMILES): CC(C)Oc1ccc2c(=O)c(-c3ccccc3)coc2c1 [Ipriflavon, 7-isopropoxy-isoflavon]
solubility in water [2]: 1 to 2 µg/mL
resorption of the main metabolite ([3]; dog, in vivo, po): 0.152 µg·h/mL
Ipriflavon in the blood ([3]; dogs, oral): cannot be detected in the blood
detection of unchanged Ipriflavon in plasma ([5]; p.o.): can be detected only in few periods (at 2 and 4 hours)
solubility at 96 h ([6]; aqueous α-cd 50 mg/ml, Solubility of Ipriflavon): 10.6 µg/mL (≈ 37.8 µM)
solubility at 96 h ([6]; aqueous β-cd 50 mg/ml, Solubility of Ipriflavon): 5.44 µg/mL (≈ 19.4 µM)
HPLC analysis of the blood ([10]; beagle dogs): metabolites thereof (7-hydroxy-isoflavon as main metabolite) appear in the blood
radioactive material administered discharged with the urine ([10]; dog, in vivo): 12%
